BindingDB's records for doi:10.1128/AAC.00311-07 (University of California San Francisco, 2007)

What follows are compounds tested against T1, Lanosterol 14-alpha demethylase (Mycobacterium tuberculosis (strain CDC 1551 / Oshkosh), UniProt P9WPP8) (assay: Ligand Binding Assay). Conditions: pH 7.5; 37 °C.
T1 sequence (P9WPP8 whole entry): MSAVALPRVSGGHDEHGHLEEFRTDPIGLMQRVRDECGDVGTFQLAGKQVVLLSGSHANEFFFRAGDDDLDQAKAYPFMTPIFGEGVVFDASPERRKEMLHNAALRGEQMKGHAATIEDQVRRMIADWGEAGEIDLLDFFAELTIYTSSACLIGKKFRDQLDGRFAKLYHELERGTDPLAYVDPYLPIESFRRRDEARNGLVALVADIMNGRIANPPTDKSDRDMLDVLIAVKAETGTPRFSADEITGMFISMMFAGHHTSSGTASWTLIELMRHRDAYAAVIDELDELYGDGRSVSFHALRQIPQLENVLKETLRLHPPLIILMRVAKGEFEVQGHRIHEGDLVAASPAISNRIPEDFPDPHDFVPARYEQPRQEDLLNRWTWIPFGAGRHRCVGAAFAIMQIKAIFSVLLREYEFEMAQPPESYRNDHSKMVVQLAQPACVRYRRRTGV
From the text: The assay was developed based on the optical spectral property of P450 enzyme to elicit both type I and type II spectral changes (350 nm through 450 nm). The concentration dependence of the changes allows the binding affinities of the ligands to be estimated. Titration data were linearized by plotting S0/deltaA against S0, where S0 is the total concentration of a ligand and deltaA is the change in absorption. The equilibrium dissociation constant (Kd) was extrapolated from the intercept of the linear plot with the S0 axis.
Work on `c1ccc(-c2c[nH]cn2)cc1` yielded a Kd of 1300 µM. Compound `NCC(=O)N1c2ccccc2SC2C=CC=CC21` (stereo not drawn) [1-(10,10a-dihydro-4aH-phenothiazin-10-yl)-2-aminoethan-1-one] has a Kd of 7.5 µM. `O=C1c2cc(O)ccc2-c2ccc(O)cc21` [2,7-Dihydroxy-9-fluorenone] was tested, and the Kd was 37.5 µM. With `CCC1(C)CC(CCN)(c2ccc(OC)cc2)CCO1` (stereo not drawn) [2-[2-ethyl-4-(4-methoxyphenyl)-2-methyloxan-4-yl]ethan-1-amine] the Kd was 7.5 µM. Work on `COc1ccccc1C(CCN)c1ccco1` (stereo not drawn) [3-furan-2-yl-3-(2-methoxyphenyl)propan-1-amine] yielded a Kd of 7.5 µM. In the case of `O=C(Nc1ccncc1)C1(c2ccccc2)CCOCC1` [4-phenyl-N-pyridin-4-yltetrahydro-2H-pyran-4-carboxamide], the Kd is reported as 7.5 µM. With `C[C@]12CCC3c4ccc(O)cc4CCC3C1C[C@@H](O)[C@@H]2O` (stereo partly drawn) [Epiestriol] the Kd was 100 µM. `Nc1ccc(NS(=O)(=O)c2ccc(Cl)cc2)cc1` [N-(4-aminophenyl)-4-chlorobenzene-1-sulfonamide] was tested, and the Kd was 7.5 µM.
